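Compound exposure: 48 hours, 5 concentrations, 96-well plates. GI50 marks 50% less growth.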 Active and inactive are the calls of the source. No stated cut-off is given here; in the data, active = GI50 up to about 1.1 µM and inactive = higher.
Experiments:
Experiment in all cases: NCI-60 cell line screen, 48 h
[1] = test system: MCF7
[2] = test system: UACC-62
[3] = test system: HCT-15
[4] = test system: NCI-H522
[5] = test system: RXF 393
[6] = test system: ACHN
[7] = test system: K562
[8] = test system: COLO 205
[9] = test system: SK-OV-3
[10] = test system: SN12C
[11] = test system: LOX IMVI
[12] = test system: OVCAR-5
[13] = test system: A549
[14] = test system: 786-0
[15] = test system: M14
[16] = test system: HOP-62
[17] = test system: KM12
[18] = test system: HL-60
[19] = test system: IGROV-1
[20] = test system: MDA-N

SMILES	GI50 [1]	GI50 [2]	GI50 [3] [µM]	GI50 [4]	GI50 [5]	GI50 [6]	GI50 [7]	GI50 [8]	GI50 [9]	GI50 [10]	GI50 [11]	GI50 [12]	GI50 [13]	GI50 [14]	GI50 [15]	GI50 [16]	GI50 [17]	GI50 [18]	GI50 [19]	GI50 [20]
Nc1sc2c(c1C(=O)c1ccc(Cl)c(Cl)c1)CCCC2	18.7 µM (inactive)	92 µM (inactive)	50.6	21 µM (inactive)	27.2 µM (inactive)	67.3 µM (inactive)	25.5 µM (inactive)	32.3 µM (inactive)	> 100 µM (inactive)	> 100 µM (inactive)	40.3 µM (inactive)	> 100 µM (inactive)	51.9 µM (inactive)	68.7 µM (inactive)	44.1 µM (inactive)	83.6 µM (inactive)	22.3 µM (inactive)	22.6 µM (inactive)	–	–
CC1=C(SCc2ccccc2)C(=O)c2ccccc2C1=O	14.2 µM (inactive)	15.8 µM (inactive)	18.5	–	16.6 µM (inactive)	13.6 µM (inactive)	3.05 µM (inactive)	19.7 µM (inactive)	20.2 µM (inactive)	17.8 µM (inactive)	17.6 µM (inactive)	25.5 µM (inactive)	–	13.2 µM (inactive)	–	17.3 µM (inactive)	18.5 µM (inactive)	3.73 µM (inactive)	12 µM (inactive)	–
Cc1ccc(S(=O)(=O)NC2=NS(=O)(=O)c3cc(C)c(Cl)cc3S2)cc1	85.3 µM (inactive)	> 100 µM (inactive)	> 100	42.3 µM (inactive)	76.7 µM (inactive)	> 100 µM (inactive)	34.3 µM (inactive)	> 100 µM (inactive)	> 100 µM (inactive)	> 100 µM (inactive)	62.2 µM (inactive)	> 100 µM (inactive)	> 100 µM (inactive)	> 100 µM (inactive)	81.8 µM (inactive)	> 100 µM (inactive)	> 100 µM (inactive)	> 100 µM (inactive)	> 100 µM (inactive)	–
NC(=O)C(=Cn1c(=S)[nH]c2ccc([N+](=O)[O-])cc21)C(N)=O	–	> 100 µM (inactive)	> 100	–	> 100 µM (inactive)	> 100 µM (inactive)	–	> 100 µM (inactive)	> 100 µM (inactive)	> 100 µM (inactive)	> 100 µM (inactive)	> 100 µM (inactive)	> 100 µM (inactive)	> 100 µM (inactive)	> 100 µM (inactive)	> 100 µM (inactive)	> 100 µM (inactive)	> 100 µM (inactive)	> 100 µM (inactive)	> 100 µM (inactive)
CN(C)/C=N/c1nc2ncn(CCOC(=O)c3ccccc3)c2c(=O)[nH]1	–	> 100 µM (inactive)	> 100	> 100 µM (inactive)	> 100 µM (inactive)	> 100 µM (inactive)	> 100 µM (inactive)	> 100 µM (inactive)	> 100 µM (inactive)	> 100 µM (inactive)	> 100 µM (inactive)	> 100 µM (inactive)	> 100 µM (inactive)	> 100 µM (inactive)	> 100 µM (inactive)	> 100 µM (inactive)	> 100 µM (inactive)	> 100 µM (inactive)	> 100 µM (inactive)	–
Cc1ccc(C(=O)Oc2ccc(/C=C3\CCC/C(=C\c4ccc(OC(=O)c5ccc(C)cc5)cc4)C3=O)cc2)cc1	> 100 µM (inactive)	> 100 µM (inactive)	> 100	> 100 µM (inactive)	–	> 100 µM (inactive)	–	> 100 µM (inactive)	–	> 100 µM (inactive)	> 100 µM (inactive)	> 100 µM (inactive)	> 100 µM (inactive)	> 100 µM (inactive)	> 100 µM (inactive)	> 100 µM (inactive)	> 100 µM (inactive)	> 100 µM (inactive)	> 100 µM (inactive)	> 100 µM (inactive)
Cc1nnc(N/N=C2/C(=O)Nc3c(Cl)cc(Cl)cc32)n1N	–	> 100 µM (inactive)	> 100	34.2 µM (inactive)	59.2 µM (inactive)	> 100 µM (inactive)	> 100 µM (inactive)	> 100 µM (inactive)	> 100 µM (inactive)	> 100 µM (inactive)	> 100 µM (inactive)	> 100 µM (inactive)	> 100 µM (inactive)	> 100 µM (inactive)	> 100 µM (inactive)	> 100 µM (inactive)	> 100 µM (inactive)	> 100 µM (inactive)	> 100 µM (inactive)	–
OC1CCC(COC(c2ccccc2)(c2ccccc2)c2ccccc2)O1 (configuration not stated)	17.1 µM (inactive)	17.2 µM (inactive)	16.9	17.7 µM (inactive)	–	17 µM (inactive)	14.8 µM (inactive)	17.1 µM (inactive)	20.2 µM (inactive)	19.2 µM (inactive)	15.4 µM (inactive)	22.9 µM (inactive)	17.7 µM (inactive)	19.4 µM (inactive)	18.7 µM (inactive)	19.6 µM (inactive)	17.7 µM (inactive)	18.2 µM (inactive)	18.2 µM (inactive)	18.7 µM (inactive)

Source: ChEMBL document CHEMBL1201862, “PubChem BioAssay data set” (2004)
